Literature values as cited in patent US20260048144A1, “SECRETED RNA THERAPEUTICS FOR NUCLEAR DELIVERY” (H. Lee Moffitt Cancer Center and Research Institute, Inc., priority 2022, published 2026).

Experiments:
[1] = tested in humans; Di Stasi et al. 2011
[2] = infused in thousands of lymphoma and rheumatoid arthritis patients

Molecule	safety / adverse effects in humans [1]	side effect profile [2]
CC[C@H](C(=O)N1CCCC[C@H]1C(=O)O[C@H](CCc1ccc(OC)c(OC)c1)c1cccc(OCC(=O)NCCNC(=O)COc2cccc([C@@H](CCc3ccc(OC)c(OC)c3)OC(=O)[C@@H]3CCCCN3C(=O)[C@@H](CC)c3cc(OC)c(OC)c(OC)c3)c2)c1)c1cc(OC)c(OC)c(OC)c1 [AP1903]	deemed safe without adverse effects	
Rituximab		favorable side effect profile
